# Reference: patent publication US6818765B1, “Benzene-sulphonamide derivatives and their uses” (Universite de Liege, priority 1999, dated 2004)
# pIC50: −log10 of the molar value. Like-named read-outs stand apart in the source and are kept apart here.
# Target: T1, thromboxane A2 receptors (TPα) of human platelets (Homo sapiens, UniProt P21731)
# T1 construct: endogenous in cells; host or cells: human platelets
# T1 sequence (P21731 1-343): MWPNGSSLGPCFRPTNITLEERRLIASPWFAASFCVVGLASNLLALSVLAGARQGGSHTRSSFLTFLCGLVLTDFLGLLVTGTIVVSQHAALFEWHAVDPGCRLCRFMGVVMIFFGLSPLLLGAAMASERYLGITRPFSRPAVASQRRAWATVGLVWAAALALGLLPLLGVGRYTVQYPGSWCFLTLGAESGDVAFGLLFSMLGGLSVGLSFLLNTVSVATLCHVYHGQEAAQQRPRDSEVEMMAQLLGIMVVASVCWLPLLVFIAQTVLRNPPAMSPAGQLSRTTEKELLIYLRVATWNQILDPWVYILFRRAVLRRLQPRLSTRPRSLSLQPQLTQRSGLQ
# Experiment: Binding test: displacement of [3H]SQ-29.548 from human platelet thromboxane A2 receptors
# Details: for inhibition at 1 µM: read-out: Affinity: percent of [3H]SQ-29.548 specifically substituted by the examined compound, compound 10^-6 M; for inhibition at 0.1 µM: read-out: Affinity: percent of [3H]SQ-29.548 specifically substituted by the examined compound, compound 10^-7 M
# Description: To operate a first selection, the capacity of these compounds to displace in a specific way a tritium ligand, the [^3H]
# Cozzi P., Giordani A., Menichincheri M., Pillan A., Pinciroli V., Rossi A., Tonani R., Volpi D., Tamburin M., Ferrario R., Fusar D., Salvati P.,—Agents combining thromboxane receptor antagonism with thromboxane synthase inhibition:[[[2-(1H-imidazol-1-yl)ethylidene]amino]oxy]alkanoic acids.—J. Med. Chem., 1994, 37, 3588-3604.
# [1] = read-out: IC 50: concentration required for replacing 50% of [3H]SQ-29.548 bound to receptors TPα
smiles,measurement,setting,value
O=[N+]([O-])c1ccc(NC2CCCCC2)c(S(=O)(=O)NC(=S)NC2CCCCC2)c1 [Compound 16],"Affinity: percent of [3H]SQ-29.548 specifically substituted by the examined compound, 10^-6M",,100%
same,"Affinity: percent of [3H]SQ-29.548 specifically substituted by the examined compound, 10^-7M",,46.1%
CCCCCCNc1ccc([N+](=O)[O-])cc1S(=O)(=O)NC(=O)NC(C)C [Compound 57],"Affinity: percent of [3H]SQ-29.548 specifically substituted by the examined compound, 10^-6M",,67.0%
C[C@H](Nc1ccc([N+](=O)[O-])cc1S(=O)(=O)NC(=O)NC(C)(C)C)c1ccccc1 [Compound 78],pIC50,,8.38
same,inhibition at 1 µM,,95.3%
same,inhibition at 0.1 µM,,71.6%
CC(C)NC(=O)NS(=O)(=O)c1cc(F)ccc1NC1C=CCCC1 (centres unmarked) [Compound 69],"Affinity: percent of [3H]SQ-29.548 specifically substituted by the examined compound, 10^-6M",,13.2%
CC(C)NC(=NC#N)NS(=O)(=O)c1cc([N+](=O)[O-])ccc1NC1CCCCC1 [Compound 7],"Affinity: percent of [3H]SQ-29.548 specifically substituted by the examined compound, 10^-6M",,42.9%
CC(C)NC(=O)NS(=O)(=O)c1cc([N+](=O)[O-])ccc1NC1CCCCC1 [Compound 13],"Affinity: percent of [3H]SQ-29.548 specifically substituted by the examined compound, 10^-6M",,97.7%
same,"Affinity: percent of [3H]SQ-29.548 specifically substituted by the examined compound, 10^-7M",,60.3%
CCCCCNC(=O)NS(=O)(=O)c1cc(I)ccc1NC1C=CCCC1 (centres unmarked) [Compound 93],pIC50,,8.11
same,inhibition at 1 µM,,97.9%
same,inhibition at 0.1 µM,,90.2%
CC(C)NC(=S)NS(=O)(=O)c1cc([N+](=O)[O-])ccc1NC1CCCCCCC1 [Compound 15],"Affinity: percent of [3H]SQ-29.548 specifically substituted by the examined compound, 10^-6M",,81.0%
same,"Affinity: percent of [3H]SQ-29.548 specifically substituted by the examined compound, 10^-7M",,16.6%
CCNC(=O)NS(=O)(=O)c1cc([N+](=O)[O-])ccc1NC1CCCCCC1 [Compound 28],"Affinity: percent of [3H]SQ-29.548 specifically substituted by the examined compound, 10^-6M",,81.9%
same,"Affinity: percent of [3H]SQ-29.548 specifically substituted by the examined compound, 10^-7M",,39.6%
CCCCCNC(=O)NS(=O)(=O)c1cc([N+](=O)[O-])ccc1NC1CCCCC1 [Compound 61],inhibition at 1 µM,,98.6%
same,inhibition at 0.1 µM,,94.8%
same,pIC50,[1],8.96
CCCNC(=O)NS(=O)(=O)c1cc([N+](=O)[O-])ccc1NC1CCCCC1 [Compound 81],pIC50,,7.24
same,inhibition at 1 µM,,93.3%
same,inhibition at 0.1 µM,,65%
CCCCCCNc1ccc([N+](=O)[O-])cc1S(=O)(=O)NC(=O)NC(C)(C)C [Compound 59],"Affinity: percent of [3H]SQ-29.548 specifically substituted by the examined compound, 10^-6M",,92.2%
CCCNc1ccc([N+](=O)[O-])cc1S(=O)(=O)NC(=O)NC(C)C [Compound 20],"Affinity: percent of [3H]SQ-29.548 specifically substituted by the examined compound, 10^-6M",,1.6%
CC(C)NC(=O)NS(=O)(=O)c1cc([N+](=O)[O-])ccc1N1CCCCCC1 [Compound 64],"Affinity: percent of [3H]SQ-29.548 specifically substituted by the examined compound, 10^-6M",,57.8%
CCCNc1ccc([N+](=O)[O-])cc1S(=O)(=O)NC(=S)NC(C)C [Compound 35],"Affinity: percent of [3H]SQ-29.548 specifically substituted by the examined compound, 10^-6M",,45.0%
Cc1cccc(Nc2ccc([N+](=O)[O-])cc2S(=O)(=O)NC(=NC#N)NC(C)(C)C)c1 [Compound 51],"Affinity: percent of [3H]SQ-29.548 specifically substituted by the examined compound, 10^-6M",,64.7%
CC(C)NC(=S)NS(=O)(=O)c1cc([N+](=O)[O-])ccc1NC1CCCCC1 [Compound 38],"Affinity: percent of [3H]SQ-29.548 specifically substituted by the examined compound, 10^-6M",,77.2%
Cc1cc(C)c(Nc2ccc([N+](=O)[O-])cc2S(=O)(=O)NC(=O)NC(C)C)c(C)c1 [Compound 86],pIC50,,8.74
same,inhibition at 1 µM,,98.4%
same,inhibition at 0.1 µM,,94.3%
CC(C)NC(=S)NS(=O)(=O)c1cc([N+](=O)[O-])ccc1NC1CCCCC1 [Compound 14],"Affinity: percent of [3H]SQ-29.548 specifically substituted by the examined compound, 10^-6M",,92.9%
same,"Affinity: percent of [3H]SQ-29.548 specifically substituted by the examined compound, 10^-7M",,34.0%
Cc1ccccc1Nc1ccc([N+](=O)[O-])cc1S(=O)(=O)NC(=O)NC(C)C [Compound 30],"Affinity: percent of [3H]SQ-29.548 specifically substituted by the examined compound, 10^-6M",,95.1%
same,"Affinity: percent of [3H]SQ-29.548 specifically substituted by the examined compound, 10^-7M",,80.8%
CC(C)NC(=O)NS(=O)(=O)c1cc([N+](=O)[O-])ccc1Nc1cccc(C(=O)O)c1 [Compound 53],"Affinity: percent of [3H]SQ-29.548 specifically substituted by the examined compound, 10^-6M",,36.5%
CC(C)NC(=O)NS(=O)(=O)c1cc(Cl)ccc1NC1C=CCCC1 (centres unmarked) [Compound 70],"Affinity: percent of [3H]SQ-29.548 specifically substituted by the examined compound, 10^-6M",,63.8%
CC(C)(C)NC(=O)NS(=O)(=O)c1cc([N+](=O)[O-])ccc1N1CCOCC1 [Compound 63],"Affinity: percent of [3H]SQ-29.548 specifically substituted by the examined compound, 10^-6M",,7.5%
Cc1ccc(Nc2ccc([N+](=O)[O-])cc2S(=O)(=O)NC(=O)NC(C)(C)C)cc1 [Compound 67],"Affinity: percent of [3H]SQ-29.548 specifically substituted by the examined compound, 10^-6M",,98.3%
same,"Affinity: percent of [3H]SQ-29.548 specifically substituted by the examined compound, 10^-7M",,95.8%
same,pIC50,[1],8.89
CC(C)NC(=O)NS(=O)(=O)c1cc([N+](=O)[O-])ccc1N[C@H](C)c1ccccc1 [Compound 79],"Affinity: percent of [3H]SQ-29.548 specifically substituted by the examined compound, 10^-6M",,96.6%
C[C@@H](Nc1ccc([N+](=O)[O-])cc1S(=O)(=O)NC(=O)NC(C)(C)C)c1ccccc1 [Compound 80],pIC50,,8.62
same,inhibition at 1 µM,,98.6%
same,inhibition at 0.1 µM,,97.9%
CCCCCCCNC(=O)NS(=O)(=O)c1cc([N+](=O)[O-])ccc1NC1CCCCC1 [Compound 84],pIC50,,7.62
same,inhibition at 1 µM,,96.9%
same,inhibition at 0.1 µM,,73.7%
C=CCNC(=O)NS(=O)(=O)c1cc([N+](=O)[O-])ccc1NC1CCCCCCC1 [Compound 34],"Affinity: percent of [3H]SQ-29.548 specifically substituted by the examined compound, 10^-6M",,77.3%
CC(C)NC(=O)NS(=O)(=O)c1cc([N+](=O)[O-])ccc1N[C@@H](C)c1ccccc1 [Compound 77],"Affinity: percent of [3H]SQ-29.548 specifically substituted by the examined compound, 10^-6M",,79.4%
CC(C)NC(=NC#N)NS(=O)(=O)c1cc([N+](=O)[O-])ccc1NC1CCCCCCC1 [Compound 9],"Affinity: percent of [3H]SQ-29.548 specifically substituted by the examined compound, 10^-6M",,15.4%
CCCCCNC(=O)NS(=O)(=O)c1cc([N+](=O)[O-])ccc1Nc1cccc(C)c1 [Compound 96],pIC50,,7.36
same,inhibition at 1 µM,,92.3%
CC(C)NC(=O)NS(=O)(=O)c1cc([N+](=O)[O-])ccc1NC1C=CCCC1 (centres unmarked) [Compound 68],"Affinity: percent of [3H]SQ-29.548 specifically substituted by the examined compound, 10^-6M",,93.2%
same,"Affinity: percent of [3H]SQ-29.548 specifically substituted by the examined compound, 10^-7M",,67.4%
CC(C)NC(=O)NS(=O)(=O)c1cc(C#N)ccc1NC1CC2CCC1C2 (centres unmarked) [Compound 66],"Affinity: percent of [3H]SQ-29.548 specifically substituted by the examined compound, 10^-6M",,49.6%
O=[N+]([O-])c1ccc(NC2CCCCCCC2)c(S(=O)(=O)NC(=S)NC2CCCCC2)c1 [Compound 41],"Affinity: percent of [3H]SQ-29.548 specifically substituted by the examined compound, 10^-6M",,75.9%
O=C(Nc1ccccc1)NS(=O)(=O)c1cc([N+](=O)[O-])ccc1NC1CCCCC1 [Compound 65],"Affinity: percent of [3H]SQ-29.548 specifically substituted by the examined compound, 10^-6M",,46.6%
Cc1cccc(Nc2ccc([N+](=O)[O-])cc2S(=O)(=O)NC(=C[N+](=O)[O-])NC2CCCCC2)c1 [Compound 10],"Affinity: percent of [3H]SQ-29.548 specifically substituted by the examined compound, 10^-6M",,57.7%
N#CN=C(NC1CCCCC1)NS(=O)(=O)c1cc([N+](=O)[O-])ccc1NC1CCCC1 [Compound 4],"Affinity: percent of [3H]SQ-29.548 specifically substituted by the examined compound, 10^-6M",,50.0%
CCCCNC(=O)NS(=O)(=O)c1cc([N+](=O)[O-])ccc1NC1CCCCC1 [Compound 82],pIC50,,8.35
same,inhibition at 1 µM,,98.5%
same,inhibition at 0.1 µM,,98%
CCOC(=O)NS(=O)(=O)c1cc([N+](=O)[O-])ccc1NC1CCCC1 [Compound 45],"Affinity: percent of [3H]SQ-29.548 specifically substituted by the examined compound, 10^-6M",,79.9%
same,"Affinity: percent of [3H]SQ-29.548 specifically substituted by the examined compound, 10^-7M",,50.4%
CC(C)NC(=O)NS(=O)(=O)c1cc(Br)ccc1NC1C=CCCC1 (centres unmarked) [Compound 71],"Affinity: percent of [3H]SQ-29.548 specifically substituted by the examined compound, 10^-6M",,77.8%
Cc1ccc(C)c(Nc2ccc([N+](=O)[O-])cc2S(=O)(=O)NC(=O)NC(C)C)c1 [Compound 89],pIC50,,7.94
same,inhibition at 1 µM,,96.6%
same,inhibition at 0.1 µM,,83.5%
C=CCNC(=O)NS(=O)(=O)c1cc([N+](=O)[O-])ccc1Nc1ccccc1 [Compound 31],"Affinity: percent of [3H]SQ-29.548 specifically substituted by the examined compound, 10^-6M",,80.5%
same,"Affinity: percent of [3H]SQ-29.548 specifically substituted by the examined compound, 10^-7M",,42.2%
C=CCNC(=O)NS(=O)(=O)c1cc([N+](=O)[O-])ccc1NC1CCCCC1 [Compound 32],"Affinity: percent of [3H]SQ-29.548 specifically substituted by the examined compound, 10^-6M",,86.7%
same,"Affinity: percent of [3H]SQ-29.548 specifically substituted by the examined compound, 10^-7M",,46.0%
